Consider 25 compounds from patent EP0336356A2, “Derivatives of tryptophan as CCK antagonists” (ABBOTT LABORATORIES, priority 1988, dated 1989).

Counter-ions that a name gives are not always drawn. A value given as a limit tells only on which side of the number the result lay.

In experiment [1] the target is T1, CCK receptors (Cavia porcellus, UniProt H0VZC5).
T1 construct: cortex and pancreas were removed and rinsed with ice-cold saline; from tissue; host or cells: guinea pig cerebral cortex membranes
T1 sequence (H0VZC5 1-426): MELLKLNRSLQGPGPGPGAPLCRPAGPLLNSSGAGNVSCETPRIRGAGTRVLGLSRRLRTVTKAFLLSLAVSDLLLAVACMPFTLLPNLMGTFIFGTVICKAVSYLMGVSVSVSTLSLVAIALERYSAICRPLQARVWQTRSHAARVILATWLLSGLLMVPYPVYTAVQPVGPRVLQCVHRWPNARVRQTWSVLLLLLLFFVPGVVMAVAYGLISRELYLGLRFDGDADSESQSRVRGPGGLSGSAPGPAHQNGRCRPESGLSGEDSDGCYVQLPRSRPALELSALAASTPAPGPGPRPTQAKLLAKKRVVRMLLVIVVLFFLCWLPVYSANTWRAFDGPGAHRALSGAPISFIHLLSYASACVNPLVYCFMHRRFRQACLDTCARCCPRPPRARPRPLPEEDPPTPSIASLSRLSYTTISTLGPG
As to the kind of experiment: [125I]BH-CCK8 radioligand binding, guinea pig cerebral cortical membranes. Particulars: 30°C for 150 min, read-out: IC₅₀ (nM) [¹²⁵I]-BH-CCK₈ Cortex.

In experiment [2] the target is T2, CCK receptors (Cavia porcellus, UniProt Q63931).
T2 construct: cortex and pancreas were removed and rinsed with ice-cold saline; from tissue; host or cells: guinea pig pancreas membranes
T2 sequence (Q63931 1-430): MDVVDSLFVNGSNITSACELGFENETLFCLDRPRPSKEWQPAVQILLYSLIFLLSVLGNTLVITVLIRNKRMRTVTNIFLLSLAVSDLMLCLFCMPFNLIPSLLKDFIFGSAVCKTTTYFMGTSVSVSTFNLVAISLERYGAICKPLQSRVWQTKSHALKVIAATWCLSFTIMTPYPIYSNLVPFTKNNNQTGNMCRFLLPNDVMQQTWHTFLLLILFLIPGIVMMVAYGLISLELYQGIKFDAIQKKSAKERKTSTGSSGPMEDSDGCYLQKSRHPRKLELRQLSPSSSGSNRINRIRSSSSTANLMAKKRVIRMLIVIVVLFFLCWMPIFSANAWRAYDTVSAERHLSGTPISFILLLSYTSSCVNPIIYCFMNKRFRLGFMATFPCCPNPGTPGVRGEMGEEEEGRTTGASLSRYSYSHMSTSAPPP
In words: [125I]BH-CCK8 radioligand binding, guinea pig pancreatic membranes. Particulars: 37°C for 30 min, read-out: IC₅₀ (nM) [¹²⁵I]-BH-CCK₈ Pancreas.

Experiment [3] addresses T2, CCK receptors. As to the kind of experiment: Inhibition of CCK8-stimulated amylase release from guinea pig pancreatic acini. Format: cell-based. Particulars: reference concentration for CCK₈ 3x10⁻¹⁰M, 37°C, 30 min, read-out: IC₅₀ (nM) Inhibition of Amylase Release. As to the method:
This assay was performed using the modified protocol of Lin et al., J. Pharmacol Exp. Ther. 236, 729-734, 1986. Guinea pig acini were prepared by the method of Bruzzone et al. (Biochem. J. 226, 621-624, 1985) as follows. Pancreas was dissected out and connective tissues and blood vessels were removed. […] The composition of the KRH buffer was: HEPES, 12.5 mM: NaCl, 118 mM; […] CaCl₂, 1 mM; KH₂PO₄, 1.2 mM; MgSO₄, 1.2 mM; NaHCO₃, 5 mM; glucose, 10 mM, pH 7.4. The buffer was supplemented with 1% MEM vitamins, 1% MEM amino acids and 0.001% aprotinin. The tube was shaken by hand until the suspension appeared homogeneous, usually 5 to 6 min. 5 mL of the KRH, without collagenase and with 0.1% BSA, were added and the tube was centrifuged at 50 x g for 35 sec. The supernatant was discarded and 6 mL of the KRH were added to the cell pellet. […] This wash procedure was repeated once. The cell pellet from the last centrifugation step was then resuspended in 15 mL of KRH containing 0.1% BSA. The contents were filtered through a dual nylon mesh, size 275 and 75 um. The filtrate, containing the acini, were centrifuged at 50 x g for 3 min. The acini were then resuspended in 5 mL of KRH-BSA buffer for 30 min at 37°C, under 100% O₂, with a change of fresh buffer at 15 min. After the 30 min incubation time, the acini were resuspended in 100 volumes of KRH-BSA buffer, containing 3 uM phosphoramidon and 100 µM bestatin. […] The final assay volume was 500 uL. Tubes were vortexed and placed in a 37°C waterbath, under 100% O₂, for 30 min. Afterward, tubes were centrifuged at 10,000 g for 1 min. Amylase activity in the supernatant and the cell pellet were separately determined after appropriate dilutions in 0.1% Triton X-100, 10 mM NaH₂PO₄, pH 7.4 by Abbott Amylase A-gent test using the Abbott Bichromatic Analyzer 200. […]

Take `CCCCCN(CCCCC)C(=O)C(Cc1c[nH]c2ccc(OCc3ccccc3)cc12)NC(=O)c1cnc2ccccc2c1` (racemic) [Example 53, N-(3′-Quinolylcarbonyl)-R,S-5-benzyloxytryptophan-di-n-pentylamide]: the IC50 on CCK receptors [1] is over 10000 nM.

For `CCCCCN(CCCCC)C(=O)C(Cc1c[nH]c2ccc(F)cc12)NC(=O)c1cnc2ccccc2c1` (racemic) [Example 63, N-(3′-Quinolylcarbonyl)-R,S-5-fluorotryptophan-di-n-pentylamide], the results for the IC50 on CCK receptors [2] and at CCK receptors [1] were 62 nM and over 10000 nM, respectively.

As for `CCCCCN(CCCCC)C(=O)C(Cc1c[nH]c2ccc(F)cc12)NC(=O)c1cc2ccccc2[nH]1` (racemic) [Example 64, N-(2′-Indolylcarbonyl)-R,S-5-fluorotryptophandi-n-pentylamide], the figures for the IC50 at CCK receptors [2] and on CCK receptors [1] were 330 nM and 10000 nM, respectively.

Take `CCCCCN(CCCCC)C(=O)[C@@H](Cc1c[nH]c2ccccc12)NC(=O)c1cc2ccccc2[nH]1` [Example 3, N-(2′-Indolylcarbonyl)-R-Tryptophan-di-n-pentylamide]: the IC50 was 51 nM at CCK receptors [2] and 670 nM at CCK receptors [3].

Turning to `CCCCCN(CCCCC)C(=O)[C@@H](Cc1c[nH]c2ccccc12)NC(=O)c1ccc(Cl)cc1` [Example 4, N-(p-Chlorobenzoyl)-R-Tryptophan-di-n-pentylamide], the IC50 at CCK receptors [2] came to 330 nM.

On to `O=C(N[C@H](Cc1c[nH]c2ccccc12)C(=O)NCc1ccccc1)c1cnc2ccccc2c1` [Example 7, N-(3′-Quinolylcarbonyl)-R-Tryptophan-benzylamide], for which the IC50 on CCK receptors [3] is under 30000 nM.

On to `O=C(N[C@H](Cc1c[nH]c2ccccc12)C(=O)NCc1ccccc1)c1cc2ccccc2[nH]1` [Example 8, N-(2′-Indolylcarbonyl)-R-Tryptophan-benzylamide], for which the values for the IC50 on CCK receptors [2], at CCK receptors [1] and at CCK receptors [3] were 420 nM, over 10000 nM and under 10000 nM, respectively.

With `C[C@@H](NC(=O)C(Cc1c[nH]c2ccccc12)NC(=O)c1cc2ccccc2[nH]1)c1ccccc1` (stereo partly drawn) [Example 18, N-(2′-Indolylcarbonyl)-Tryptophan-(1′,R-phenylethyl)amide], the figures for the IC50 on CCK receptors [2], at CCK receptors [1] and on CCK receptors [3] were 680 nM, 10000 nM and under 30000 nM, respectively.

`C[C@H](NC(=O)C(Cc1c[nH]c2ccccc12)NC(=O)c1cc2ccccc2[nH]1)c1ccccc1` (stereo partly drawn) [Example 19, N-(2′-Indolylcarbonyl)-Tryptophan-(1′,S-phenylethyl)amide]: the IC50 is 1000 nM at CCK receptors [2], over 10000 nM at CCK receptors [1] and under 10000 nM at CCK receptors [3].

Consider `CCCCCN(CCCCC)C(=O)[C@@H](Cc1c(Sc2ccccc2[N+](=O)[O-])[nH]c2ccccc12)NC(=O)c1cnc2ccccc2c1` [Example 45, N-(3′-Quinolylcarbonyl)-2-(2′-nitrophenylsulfenyl)-R-Tryptophan-di-n-pentylamide], for which the IC50 was 1500 nM at CCK receptors [2] and over 10000 nM at CCK receptors [1].

With `O=C(NC(Cc1c[nH]c2ccccc12)C(=O)Nc1cnc2ccccc2c1)c1cnc2ccccc2c1` (stereo not drawn) [Example 46, N-(3′-Quinolylcarbonyl)-Tryptophan-N-(3′-quinolyl)amide], the IC50 at CCK receptors [3] is under 10000 nM.

`COC(=O)[C@@H](NC(=O)[C@@H](Cc1c[nH]c2ccccc12)NC(=O)c1cnc2ccccc2c1)c1ccc(O)cc1` [Example 50, Methyl N-(3′-Quinolylcarbonyl)-R-Tryptophyl-S-(p-hydroxyphenyl)glycinate]: the IC50 is 1200 nM at CCK receptors [2] and over 10000 nM on CCK receptors [1].

In the case of `CCCCCN(CCCCC)C(=O)C(Cc1c[nH]c2ccccc12)NC(=O)C=Cc1cccnc1` (stereo not drawn) [Example 54, N-(3′-(3˝-Pyridyl)prop-2-enoyl)-R-Tryptophan-di-n-pentylamide], the IC50 at CCK receptors [3] is under 100000 nM.

On to `CCCCCN(CCCCC)C(=O)[C@@H](Cc1c[nH]c2ccccc12)NC(=O)C1=C(C)c2ccccc2C1` [Example 57, N-(2′-(3′-Methylindenyl)carbonyl)-R-Tryptophan-di-n-pentylamide], for which the IC50 at CCK receptors [2] was 750 nM; on CCK receptors [1] it was over 10000 nM.

`CCCCCN(CCCCC)C(=O)[C@@H](CC1C(=O)Nc2ccccc21)NC(=O)c1cnc2ccccc2c1` (stereo partly drawn) [Example 69, N-(3′-Quinolylcarbonyl)-R-(β-oxyindolyl)Ala-di-n-pentylamide]: the IC50 at CCK receptors [2] was 10 nM; on CCK receptors [1], 4100 nM.

As for `CCCCCN(CCCCC)C(=O)[C@H]1Cc2c([nH]c3ccccc23)N1C(=O)c1cnc2ccccc2c1` [Example 78, 2,3-Dihydro-1-(3′-quinolylcarbonyl)-pyrrolo[2,3-b]indole-(2R)-dipentylcarboxamide], the figures for the IC50 at CCK receptors [2] and on CCK receptors [1] were 370 nM and over 10000 nM, respectively.

Regarding `CCCCCN(CCCCC)C(=O)[C@@H](Cc1c[nH]c2ccc(O)cc12)NC(=O)c1cnc2ccccc2c1` [Example 84, N^α-(3′-Quinolylcarbonyl)-R-5-hydroxytryptophan-di-n-pentylamide], the IC50 on CCK receptors [2] was 2.6 nM; at CCK receptors [1] it was under 10000 nM.

With `CCCCCN(CCCCC)C(=O)[C@@H](Cc1c[nH]c2ccccc12)NC(=O)c1ccc2cccc(O)c2n1` [Example 90, N′(8′-Hydroxy-2′-quinolylcarbonyl)-R-Tryptophan-di-n-pentylamide], the IC50 at CCK receptors [2] was 230 nM; on CCK receptors [1], over 10000 nM.

Consider `CCCCCN(CCCCC)C(=O)[C@@H](Cc1c[nH]c2ccccc12)NC(=O)c1cc(O)c2cccc(O)c2n1` [Example 91, N-(4′,8′-Dihydroxy-2′-quinolylcarbonyl)-R-Tryptophan-di-n-pentylamide], for which, on CCK receptors [2], the IC50 worked out at 5 nM.

For `CCCCCN(CCCCC)C(=O)[C@@H](Cc1c[nH]c2ccccc12)NC(=O)c1ccc2cc(O)ccc2c1` [Example 93, N-(6′-Hydroxy-2′-naphthoyl)-R-Tryptophan-di-n-pentylamide], at CCK receptors [3], the IC50 was determined as 100000 nM.

With `CCCCCN(CCCCC)C(=O)[C@@H](Cc1c[nH]c2ccccc12)NC(=O)c1cc2ccccc2cn1` [Example 96, N-(3′-Isoquinolylcarbonyl)-R-Tryptophan-di-n-pentylamide], the results for the IC50 at CCK receptors [2] and on CCK receptors [3] were 630 nM and under 100000 nM, respectively.

For `CCCCCN(CCCCC)C(=O)[C@@H](Cc1c[nH]c2ccccc12)NC(=O)c1ccc2ncccc2c1` [Example 97, N-(6′-Quinolylcarbonyl)-R-Tryptophan-di-n-pentylamide], the IC50 was 180 nM at CCK receptors [2] and under 100000 nM at CCK receptors [3].

For the compound `CCCCCN(CCCCC)C(=O)[C@@H](Cc1c[nH]c2ccccc12)NC(=O)c1cc2cc(C)ccc2[nH]1` [Example 105, N-(5′-Methyl-2′-indolylcarbonyl)-R-Tryptophan-di-n-pentylamide], the IC50 was 620 nM on CCK receptors [2] and over 10000 nM at CCK receptors [1].

As to `CCCCCN(CCCCC)C(=O)[C@@H](Cc1c[nH]c2ccccc12)NC(=O)c1cc2cc(F)ccc2[nH]1` [Example 106, N-(5′-Fluoro-2′-indolylcarbonyl)-R-Tryptophan-di-n-pentylamide], the IC50 at CCK receptors [2] was found to be 82 nM.

On to `CCCCCN(CCCCC)C(=O)[C@@H](Cc1c[nH]c2ccccc12)NC(=O)c1cnc2ccccc2c1` [Example 117, N-(3′-Quinolylcarbonyl)-R-Tryptophan-di-n-pentylamide mesylate salt], for which the IC50 at CCK receptors [2] stood at 17 nM; at CCK receptors [1], 13000 nM.
